Assay results from patent publication US20250214924A1, “NOVEL COMPOUNDS AND USES THEREOF” (ACTIVON CO., LTD., priority 2022, published 2025).

Assays:
[1] = test system: human keratinocytes (HaCaT cells); assay: WST-1 assay, cytotoxicity / skin irritation (Experimental Example 1); format: cell-based; settings: for Cell Viability: 24 hours, HaCaT cells, untreated = 100%
Method: To confirm whether the compound prepared in Embodiment 1 causes toxicity in skin cells and induces skin irritation, a WST-1 assay was conducted, and the results are shown in Table 1 and FIG. 2 below. In the experiment, human keratinocytes (HaCaT cells) were seeded at a density of 1×10^4 cells per well in a 96-well plate with DMEM (Dulbecco's Modified Eagle Medium) containing 10% FBS (Fetal Bovine Serum) and 1% Antibiotic-Antimycotic, and incubated for 24 hours in a constant temperature chamber at 37° C. with 5% CO2. Subsequently, the cells were treated with the compound prepared in Embodiment 1 and incubated for an additional 24 hours.

HaCaT cells = assay: antioxidant effect against H2O2 oxidative toxicity (Experimental Example 2); format: cell-based, human; settings: for Number of fluorescent cells (Cell number): untreated 15, H2O2 only 255
[2] = test system: H2O2-induced reactive oxygen species generation; assay: DCF-DA staining, H2O2-induced reactive oxygen species generation (Experimental Example 3); format: cell-based; settings: for Number of fluorescent cells (Cell number): DCF-DA, untreated 15, H2O2 only 255
Method: To investigate the inhibitory effect of the compound prepared in Embodiment 1 on H2O2-induced reactive oxygen species generation, DCF-DA staining was performed, and the results are shown in Table 3, FIG. 4, and FIG. 5 below. In the experiment, […] were seeded at a density of 2×10^5 cells per dish in a 35 pi dish and incubated for 24 hours. Subsequently, the cells were treated with the compound prepared in Embodiment 1 and further incubated for 24 hours. After 10 minutes of loading with 5 mM DCF-DA, the cells were examined under a fluorescence microscope, and the number of DCF-DA fluorescent cells was counted using Image J.

[3] = various concentrations, compared to positive control group (H2O2 treatment)

Structure (SMILES) | Cell Viability ([1]; 5 uM) [%] | change in cell viability ([1]; 10 μM treatment) | Cell Viability ([1]; 10 uM) [%] | toxicity to Keratinocyte (HaCaT) cells ([1]; concentrations of 5 and 10 μM) | Number of fluorescent cells (Cell number) (HaCaT cells; H2O2 1 mM + substance 5 uM) | Number of fluorescent cells (Cell number) (HaCaT cells; H2O2 1 mM + substance 10 uM) | increase in reactive oxygen species caused by H2O2 treatment (HaCaT cells; [3]) | Number of fluorescent cells (Cell number) ([2]; H2O2 + substance 5 uM) | Number of fluorescent cells (Cell number) ([2]; H2O2 + substance 10 uM) | increase in reactive oxygen species caused by H2O2 treatment [2, 3]
O=C(/C=C/c1ccc(O)c(O)c1)OCc1ccc(OC(=O)/C=C/c2ccc(O)c(O)c2)cc1 [Embodiment 1, 4-(((E)-3-(3,4-dihydroxyphenyl)acryloyl)oxy)benzyl (E)-3-(3,4-dihydroxyphenyl)acrylate] | 95.9 | cell viability increased | 118.9 | did not show toxicity | 60 | 42 | significantly reduced | 60 | 42 | significantly reduced
O=C1O[C@H]([C@@H](O)CO)C(O)=C1O [Ascorbic acid, reference compound] |  |  |  |  |  | 170 |  |  | 170 | 
O=C(O)/C=C/c1ccc(O)c(O)c1 [Caffeic acid, reference compound] |  |  |  |  |  | 250 |  |  | 250 | 
